Where two headings read alike, the source gives them in different places. Where a SMILES comes first, the peptide text is derived from it.
What was measured:
hCMEC [1] = assay: TS DPH hCMEC (Table S2); format: cell-based, human; set-up: scale not given here
MATE2K = MATE2K (Homo sapiens, UniProt Q86VL8); assay: Uptake ratio in MATE2K-overexpressing HEK293 cells vs empty vector (2.5 μM, 1 min, HPLC-MS/MS); format: cell-based
MATE1 = target: T1, MATE1 (Homo sapiens, UniProt Q96FL8); assay: Uptake ratio in MATE1-overexpressing HEK293 cells vs empty vector (2.5 μM, 1 min, HPLC-MS/MS); format: cell-based
T1 sequence (Q96FL8 1-570): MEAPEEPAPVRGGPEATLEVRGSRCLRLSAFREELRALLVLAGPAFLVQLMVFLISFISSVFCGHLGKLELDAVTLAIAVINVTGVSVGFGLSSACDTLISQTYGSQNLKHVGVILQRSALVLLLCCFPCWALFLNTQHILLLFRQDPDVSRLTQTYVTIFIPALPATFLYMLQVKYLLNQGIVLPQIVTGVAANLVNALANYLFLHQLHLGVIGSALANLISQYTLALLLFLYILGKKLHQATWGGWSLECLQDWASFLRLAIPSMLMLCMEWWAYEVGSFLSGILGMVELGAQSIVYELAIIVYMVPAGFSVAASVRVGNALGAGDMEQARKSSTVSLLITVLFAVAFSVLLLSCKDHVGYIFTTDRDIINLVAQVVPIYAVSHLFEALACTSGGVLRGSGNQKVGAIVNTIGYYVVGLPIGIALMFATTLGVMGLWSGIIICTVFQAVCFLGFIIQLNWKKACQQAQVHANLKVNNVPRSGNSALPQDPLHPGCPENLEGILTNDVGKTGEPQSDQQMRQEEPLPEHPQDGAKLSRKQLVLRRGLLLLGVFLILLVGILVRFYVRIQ

hCMEC [2] = assay: TS MDAI hCMEC (Table S2); format: cell-based, human; set-up: scale not given here
[3] = fold uptake over empty vector, 2.5 μM, 1 min
[4] = mean ratio of uptake in MATE2K-overexpressing HEK293 cells vs empty vector, 2.5 μM, 1 min
[5] = mean ratio of uptake in MATE1-overexpressing HEK293 cells vs empty vector, 2.5 μM, 1 min
[6] = uptake ratio MATE2K-overexpressing vs empty-vector HEK293 cells, 2.5 μM, 1 min, mean
[7] = uptake ratio MATE1-overexpressing vs empty-vector HEK293 cells, 2.5 μM, 1 min, mean

MATE2K, sequence (Q86VL8 1-566 isoform Q86VL8-3): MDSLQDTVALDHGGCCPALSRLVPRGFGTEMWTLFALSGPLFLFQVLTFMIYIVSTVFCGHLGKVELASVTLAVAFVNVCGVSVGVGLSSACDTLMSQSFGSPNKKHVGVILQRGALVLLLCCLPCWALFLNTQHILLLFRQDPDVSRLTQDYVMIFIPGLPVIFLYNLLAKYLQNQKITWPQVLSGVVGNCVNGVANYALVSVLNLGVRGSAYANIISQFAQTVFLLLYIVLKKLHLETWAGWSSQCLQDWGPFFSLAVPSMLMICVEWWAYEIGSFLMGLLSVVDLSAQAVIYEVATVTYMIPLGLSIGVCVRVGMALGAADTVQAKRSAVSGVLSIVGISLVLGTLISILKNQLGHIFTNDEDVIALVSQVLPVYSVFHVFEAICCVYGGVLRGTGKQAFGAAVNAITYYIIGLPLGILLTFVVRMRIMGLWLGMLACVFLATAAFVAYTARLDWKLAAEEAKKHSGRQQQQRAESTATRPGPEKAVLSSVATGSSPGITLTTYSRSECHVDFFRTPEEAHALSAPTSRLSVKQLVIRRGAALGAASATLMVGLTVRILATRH

Row | SMILES | TS DPH hCMEC (hCMEC [1]; Table S2) | MATE2K ratio (MATE2K; [3]) | MATE1 ratio (MATE1; [3]) | TS MDAI hCMEC (hCMEC [2]; Table S2) | further results
1 | C=CCN1CC[C@]23c4c5ccc(O)c4O[C@H]2C(=O)CC[C@@]3(O)[C@H]1C5 [Naloxone] | 0.78 | 1.29 | 1.36 | 0.44 | 
2 | CC(C)C(=O)Oc1ccc(CO)cc1[C@H](CCN(C(C)C)C(C)C)c1ccccc1 [Fesoterodine] | 0.40 | 1.02 | 1.09 | 0.41 | 
3 | Cc1nc2n(c(=O)c1CCN1CCC(c3noc4cc(F)ccc34)CC1)CCCC2 [Risperidone] |  |  |  |  | TS DPH hCMEC (hCMEC [1]): 0.53; MATE2 (MATE2K): 1.37; MATE2K ratio (MATE2K): 1.37; MATE1 (MATE1): 1.07; MATE1 ratio (MATE1): 1.07; TS MDAI hCMEC (hCMEC [2]): 0.46
4 | CC[C@@H](C(N)=O)N1CCCC1=O [Levetiracetam] | 1.17 | 1.28 | 1.19 | 1.19 | 
5 | CNc1c(C)n(C)n(-c2ccccc2)c1=O [4-Methylaminoantipyrine] | 1.20 | 0.83 | 0.21 | 1.26 | MATE2 (uptake ratio) (MATE2K; [4]): 0.83; MATE1 (uptake ratio) (MATE1; [5]): 0.21
6 | COc1ccc2c3c1O[C@H]1C[C@@H](O)C=C[C@@]31CCN(C)C2 [Galantamine] | 0.80 |  |  |  | MATE2K ratio (MATE2K): 1.23; MATE1 ratio (MATE1): 1.18; TS MDAI hCMEC (hCMEC [2]): 0.98
7 | CNCC[C@@H](Oc1ccccc1C)c1ccccc1 [Atomoxetine] | 0.23 | 1.18 | 1.12 | 0.25 | MATE2 (uptake ratio) (MATE2K; [4]): 1.18; MATE1 (uptake ratio) (MATE1; [5]): 1.12
8 | CNCC1CCCCC1(O)c1cccc(OC)c1 (stereo not shown) [N-Desmethyltramadol] |  |  |  |  | TS DPH hCMEC (hCMEC [1]): 0.37; MATE2K ratio (MATE2K): 1.19; MATE1 ratio (MATE1): 1.12; TS MDAI hCMEC (hCMEC [2]): 0.64
9 | C[N+](C)(C)CC(=O)O [Betaine] | 0.98 | 1.07 | 0.80 | 1.09 | MATE2 (uptake ratio) (MATE2K; [4]): 1.07; MATE1 (uptake ratio) (MATE1; [5]): 0.8
10 | COC(=O)[C@H](Cc1ccccc1)NC(=O)[C@@H](N)CC(=O)O [Aspartame] (HELM PEPTIDE1{D.F.[CO[*:1]]}$$$$V2.0) | 1.77 | 1.07 | 1.26 | 1.65 | MATE2 (uptake ratio) (MATE2K; [4]): 1.07; MATE1 (uptake ratio) (MATE1; [5]): 1.26
11 | C[N+](C)(C)CCO [Choline] | 1.04 | 1.09 | 1.13 | 1.27 | MATE2 (uptake ratio) (MATE2K; [4]): 1.09; MATE1 (uptake ratio) (MATE1; [5]): 1.13
12 | CC(C)(C)NCC(O)c1cc(Cl)c(N)c(Cl)c1 (stereo not shown) [Clenbuterol] |  |  |  |  | TS DPH hCMEC (hCMEC [1]): 0.36; MATE2 (uptake ratio) (MATE2K): 1.18; MATE2K ratio (MATE2K): 1.18; MATE1 (uptake ratio) (MATE1): 1.11; MATE1 ratio (MATE1): 1.11; TS MDAI hCMEC (hCMEC [2]): 0.07
13 | CC(C)(C)NCC(O)c1ccc(O)c(CO)n1 (stereo not shown) [Pirbuterol] | 0.95 | 6.00 | 12.66 | 1.31 | 
14 | Cc1nccn1CC1CCc2c(c3ccccc3n2C)C1=O (stereo not shown) [Ondansetron] | 0.22 | 1.24 | 1.19 | 0.22 | 
15 | Nc1nc(CC(=O)Nc2ccc(CCNC[C@H](O)c3ccccc3)cc2)cs1 [Mirabegron] | 0.90 | 4.76 | 8.19 | 0.75 | 
16 | NCCc1ccc(Oc2ccc(O)cc2)c(I)c1 [3-Iodothyronamine (T1AM), 3-Iodothyronamine] |  |  |  |  | TS DPH hCMEC (hCMEC [1]): 0.86; MATE2 (uptake ratio) (MATE2K): 1.07; MATE2K ratio (MATE2K): 1.07; MATE1 (uptake ratio) (MATE1): 1.36; MATE1 ratio (MATE1): 1.36; TS MDAI hCMEC (hCMEC [2]): 1.11
17 | CN1C2CCCC1CC(NC(=O)c1nn(C)c3ccccc13)C2 (stereo not shown) [Granisetron] | 0.43 | 1.25 | 1.22 | 0.28 | 

Row | SMILES | TS DPH hCMEC (hCMEC [1]; Table S2) | MATE2K ratio (MATE2K; [3]) | MATE1 ratio (MATE1; [3]) | TS MDAI hCMEC (hCMEC [2]; Table S2) | further results
18 | O=C1CC2(CCCC2)CC(=O)N1CCCCN1CCN(c2ncccn2)CC1 [Buspirone] |  |  |  |  | TS DPH hCMEC (hCMEC [1]): 0.56; MATE2 (uptake ratio) (MATE2K): 1.36; MATE2K ratio (MATE2K): 1.36; MATE1 (uptake ratio) (MATE1): 2.36; MATE1 ratio (MATE1): 2.36; TS MDAI hCMEC (hCMEC [2]): 0.64
19 | Cn1c(=O)[nH]c2ncn(C)c2c1=O [Paraxanthine] | 1.13 | 0.90 | 1.00 | 0.93 | 
20 | CCCOC(C(=O)OC1CCN(C)CC1)(c1ccccc1)c1ccccc1 [Propiverine] | 0.33 | 1.07 | 1.20 | 0.44 | MATE2 (MATE2K; [6]): 1.07; MATE1 (MATE1; [7]): 1.2
21 | C[C@@H](O)[C@H]1C(=O)N2C(C(=O)O)=C(S[C@@H]3CN[C@H](C(=O)N(C)C)C3)[C@H](C)[C@H]12 [Meropenem] | 1.20 | 1.33 | 1.32 | 1.00 | 
22 | OCCOCCN1CCN(C2=Nc3ccccc3Sc3ccccc32)CC1 [Quetiapine] | 0.49 | 1.28 | 1.10 | 0.45 | MATE2 (MATE2K; [6]): 1.28; MATE1 (MATE1; [7]): 1.1
23 | CC(C)NCC(O)COc1cccc2ccccc12 (stereo not shown) [Propranolol] | 0.12 |  |  | 0.08 | MATE2 (MATE2K; [6]): 1.14
24 | CN1CCN(C2=Nc3cc(Cl)ccc3Nc3ccccc32)CC1 [Clozapine] | 0.16 |  |  | 0.03 | 
25 | CCCN(CCC)CCc1cccc2c1CC(=O)N2 [Ropinirole] | 0.67 |  |  | 0.58 | 
26 | COc1c(N2C[C@@H]3CCCN[C@@H]3C2)c(F)cc2c(=O)c(C(=O)O)cn(C3CC3)c12 [Moxifloxacin] | 0.92 |  |  | 0.98 | 
27 | CC(NC(C)(C)C)C(=O)c1cccc(Cl)c1 (stereo not shown) [Bupropion] | 0.25 |  |  | 0.09 | 
28 | CCN(C)C(=O)Oc1cccc([C@H](C)N(C)C)c1 [Rivastigmine] |  |  |  |  | TS DPH hCMEC (hCMEC [1]): 0.73; TS MDAI hCMEC (hCMEC [2]): 0.43
29 | CCN(CC)CCNC(=O)c1cc(Cl)c(N)cc1OC [Metoclopramide] | 0.60 |  |  | 0.42 | 
30 | NNC(=O)c1ccncc1 [Isoniazid] | 0.96 |  |  | 1.51 | 
31 | CCCCN1CCCCC1C(=O)Nc1c(C)cccc1C [Bupivacaine (R), Bupivacaine] | 0.59 |  |  | 0.42 | 
32 | CN1CCC[C@@H]1CCO[C@](C)(c1ccccc1)c1ccc(Cl)cc1 [Clemastine] | 0.39 |  |  | 0.47 | 
33 | CN(C)CCCC1(c2ccc(F)cc2)OCc2cc(C#N)ccc21 [Citalopram (S), Citalopram] | 0.24 |  |  | 0.13 | 

Reference: publication PMC12207590, “Substrate Specificity of the Organic Cation Transporters MATE1 and MATE2K and Functional Overlap with OCT1 and OCT2” (Journal of Medicinal Chemistry, 2025)
